Data: patent US12227500B2, “Substituted pyrrolo[2,3-b]pyridines for suppressing toxic endoplasmic reticulum stress” (THE TRUSTEES OF COLUMBIA UNIVERSITY IN THE CITY OF NEW YORK, priority 2018, dated 2025)
Like-named read-outs stand apart in the source and are kept apart here.

Assays:
[1] = molecular target: T1, MLK3/MAP3K11 (Homo sapiens, UniProt Q16584); assay: Radiolabeled ATP kinase assay (Reaction Biology Corp.), MLK3; type: biochemical; conditions: [Cmpd] 0.1 μM; 10 μM ATP
T1 construct: purchased Reaction Biology Corp
T1 sequence (Q16584 whole entry): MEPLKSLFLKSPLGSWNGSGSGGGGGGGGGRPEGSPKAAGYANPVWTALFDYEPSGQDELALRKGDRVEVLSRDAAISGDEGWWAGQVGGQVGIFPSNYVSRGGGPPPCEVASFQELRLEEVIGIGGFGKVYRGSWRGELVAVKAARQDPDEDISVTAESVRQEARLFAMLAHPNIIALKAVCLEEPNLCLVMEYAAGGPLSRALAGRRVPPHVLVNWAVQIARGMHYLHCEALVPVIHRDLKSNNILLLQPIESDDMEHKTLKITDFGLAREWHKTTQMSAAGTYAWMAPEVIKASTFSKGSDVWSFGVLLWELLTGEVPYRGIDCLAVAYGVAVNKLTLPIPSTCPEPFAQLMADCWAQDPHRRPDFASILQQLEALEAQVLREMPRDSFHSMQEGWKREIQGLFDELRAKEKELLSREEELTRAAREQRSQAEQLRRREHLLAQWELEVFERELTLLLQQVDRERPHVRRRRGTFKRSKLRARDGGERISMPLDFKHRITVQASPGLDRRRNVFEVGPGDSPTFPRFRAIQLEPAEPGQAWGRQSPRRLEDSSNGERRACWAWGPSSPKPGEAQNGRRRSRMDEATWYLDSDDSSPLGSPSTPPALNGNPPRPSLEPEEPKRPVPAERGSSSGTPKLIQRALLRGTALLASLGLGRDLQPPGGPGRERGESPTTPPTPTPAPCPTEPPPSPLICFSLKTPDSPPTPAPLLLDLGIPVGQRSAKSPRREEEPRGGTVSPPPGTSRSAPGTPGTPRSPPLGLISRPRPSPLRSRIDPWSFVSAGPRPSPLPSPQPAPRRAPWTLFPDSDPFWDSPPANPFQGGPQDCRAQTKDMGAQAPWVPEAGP
Method: (§1) Meanwhile, the same analogs were analyzed in a radiolabeled ATP assay (10 μM ATP; Reaction Biology Corp.) to compare the extent to which they could inhibit the activity of HGK, MLK1, or MLK3 in a cell-free environment (Table S3 and S4).

[2] = molecular target: T2, MLK1/MAP3K9 (Homo sapiens, UniProt P80192); assay: Radiolabeled ATP kinase assay (Reaction Biology Corp.), MLK1; type: biochemical; conditions: [Cmpd] 0.1 μM, 10 μM ATP
T2 construct: purchased Reaction Biology Corp
T2 sequence (P80192 whole entry): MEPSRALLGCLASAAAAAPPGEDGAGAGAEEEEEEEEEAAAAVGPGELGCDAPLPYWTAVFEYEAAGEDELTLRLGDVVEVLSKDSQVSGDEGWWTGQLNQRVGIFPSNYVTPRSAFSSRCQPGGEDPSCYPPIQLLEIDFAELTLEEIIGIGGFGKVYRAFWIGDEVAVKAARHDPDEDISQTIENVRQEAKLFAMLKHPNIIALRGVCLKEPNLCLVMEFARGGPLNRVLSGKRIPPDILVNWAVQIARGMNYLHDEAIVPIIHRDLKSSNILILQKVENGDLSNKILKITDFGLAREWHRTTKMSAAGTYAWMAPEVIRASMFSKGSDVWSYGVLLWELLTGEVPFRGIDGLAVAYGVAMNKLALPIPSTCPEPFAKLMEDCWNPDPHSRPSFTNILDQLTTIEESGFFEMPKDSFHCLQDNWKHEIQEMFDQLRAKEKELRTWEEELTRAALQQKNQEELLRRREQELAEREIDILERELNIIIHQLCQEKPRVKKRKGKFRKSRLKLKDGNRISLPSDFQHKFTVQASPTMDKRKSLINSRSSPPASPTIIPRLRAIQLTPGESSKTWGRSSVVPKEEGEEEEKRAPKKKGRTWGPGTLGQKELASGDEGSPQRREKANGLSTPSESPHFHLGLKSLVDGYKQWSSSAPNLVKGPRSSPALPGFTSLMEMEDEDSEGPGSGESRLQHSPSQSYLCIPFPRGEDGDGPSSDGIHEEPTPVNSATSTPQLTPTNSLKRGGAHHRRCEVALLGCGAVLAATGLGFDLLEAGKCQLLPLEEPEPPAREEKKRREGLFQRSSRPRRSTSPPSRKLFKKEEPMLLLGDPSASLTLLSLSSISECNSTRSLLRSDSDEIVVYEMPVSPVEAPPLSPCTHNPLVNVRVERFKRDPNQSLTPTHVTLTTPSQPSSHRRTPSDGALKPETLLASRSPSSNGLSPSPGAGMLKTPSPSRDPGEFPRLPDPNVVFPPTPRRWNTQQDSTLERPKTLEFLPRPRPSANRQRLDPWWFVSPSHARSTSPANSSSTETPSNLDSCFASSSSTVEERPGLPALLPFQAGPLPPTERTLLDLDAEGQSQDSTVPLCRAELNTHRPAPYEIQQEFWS
Method: as §1

[3] = molecular target: HGK/MAP4K4 (Homo sapiens, UniProt O95819); assay: Radiolabeled ATP kinase assay (Reaction Biology Corp.), HGK; type: biochemical; set-up: purchased Reaction Biology Corp; conditions: 10 μM ATP, read-out: % Enzyme Activity (relative to DMSO controls), HGK/MAP4K4, Data 1; for remaining activity at 0.025 µM: [Cmpd] 0.025 μM; for remaining activity at 0.1 µM: [Cmpd] 0.1 μM
Chain of HGK/MAP4K4 (O95819 whole entry): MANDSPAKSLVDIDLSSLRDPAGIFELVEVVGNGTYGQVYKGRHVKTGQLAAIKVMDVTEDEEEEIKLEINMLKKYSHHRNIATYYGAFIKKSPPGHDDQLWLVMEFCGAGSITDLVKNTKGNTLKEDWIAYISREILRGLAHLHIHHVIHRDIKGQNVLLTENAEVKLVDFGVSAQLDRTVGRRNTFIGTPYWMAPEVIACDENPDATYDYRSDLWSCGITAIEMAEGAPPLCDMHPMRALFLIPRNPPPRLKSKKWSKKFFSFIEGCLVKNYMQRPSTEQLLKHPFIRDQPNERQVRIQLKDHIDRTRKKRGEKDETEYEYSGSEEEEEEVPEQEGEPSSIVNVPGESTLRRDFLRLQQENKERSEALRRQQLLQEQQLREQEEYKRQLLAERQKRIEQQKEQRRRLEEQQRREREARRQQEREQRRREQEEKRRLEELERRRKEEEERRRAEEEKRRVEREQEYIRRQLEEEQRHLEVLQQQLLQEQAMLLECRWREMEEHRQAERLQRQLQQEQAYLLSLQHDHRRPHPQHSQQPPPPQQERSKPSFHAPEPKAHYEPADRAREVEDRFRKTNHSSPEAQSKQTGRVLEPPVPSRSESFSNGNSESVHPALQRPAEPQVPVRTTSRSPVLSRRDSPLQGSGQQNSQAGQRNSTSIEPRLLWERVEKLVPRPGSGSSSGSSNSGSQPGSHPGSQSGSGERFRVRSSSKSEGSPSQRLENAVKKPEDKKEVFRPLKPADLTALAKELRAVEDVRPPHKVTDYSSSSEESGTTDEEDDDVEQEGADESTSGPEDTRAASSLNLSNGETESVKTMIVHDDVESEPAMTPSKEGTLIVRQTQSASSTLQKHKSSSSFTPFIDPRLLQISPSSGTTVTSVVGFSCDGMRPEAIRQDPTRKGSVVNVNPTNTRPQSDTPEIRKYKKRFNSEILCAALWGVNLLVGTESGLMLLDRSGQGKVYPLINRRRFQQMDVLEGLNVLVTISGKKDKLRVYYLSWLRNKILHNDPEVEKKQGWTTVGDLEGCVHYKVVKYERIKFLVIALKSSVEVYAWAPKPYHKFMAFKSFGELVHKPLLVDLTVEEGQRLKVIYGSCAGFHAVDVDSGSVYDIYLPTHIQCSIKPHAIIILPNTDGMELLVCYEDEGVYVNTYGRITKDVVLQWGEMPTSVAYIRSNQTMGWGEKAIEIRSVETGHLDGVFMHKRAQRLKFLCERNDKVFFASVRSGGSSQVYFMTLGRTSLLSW
Method: as §1

[4] = system: human ES motor neurons carrying the ALS-causing SOD1^A4V mutation; assay: cells; type: cell-based; conditions: 72 h, 72 h; for EC50 / Emax: CPA 33 μM; for viability at 1 µM: CPA (33 μM) + compound (1 μM), read-out: Motor Neuron Survival, % untreated; for Emax: read-out: Emax (MN survival % untreated)
Method: Next, survival assays were performed with all the analogs at once to generate a low-variability dataset. All compounds were evaluated at concentrations ranging from 0.1-3.0 μM (five-point dilution) in three technical replicates and two biological replicates.

[5] = read-out: % Enzyme Activity Remaining (relative to DMSO controls), MLK1/MAP3K9, Data 1
[6] = read-out: % Enzyme Activity Remaining (relative to DMSO controls), MLK1/MAP3K9, Data 2

Q: For CN1CCN(Cc2ccc(-c3cnc4[nH]cc(-c5cnc(N)nc5)c4c3)cc2)CC1 [Compound 7k, 5-(5-(4-((4-Methylpiperazin-1-yl)methyl)phenyl)-1H-pyrrolo[2,3-b]pyridin-3-yl)pyrimidin-2-amine], which “% Enzyme Activity Remaining (relative to DMSO controls), MLK3/MAP3K11, Data 1” value [1] is on record?
A: Its value is 71.64%.

Q: And the “% Enzyme Activity Remaining (relative to DMSO controls), MLK3/MAP3K11, Data 2” value [1]?
A: The value was 75.32%.

Q: What about the remaining activity at 0.1 µM [2, 5] of the same molecule?
A: The remaining activity at 0.1 µM was 69%.

Q: What about the remaining activity at 0.1 µM [2, 6] of the same molecule?
A: Its remaining activity at 0.1 µM is 70.8%.

Q: What about the remaining activity at 0.025 µM [3] of the same molecule?
A: The remaining activity at 0.025 µM was 48.3%.

Q: And the remaining activity at 0.1 µM [3]?
A: Its remaining activity at 0.1 µM is 16.5%.

Q: What about the EC50 ([4]; Homo sapiens, Neuron, read-out: EC50) of the same molecule?
A: The EC50 was 316 nM.

Q: And the viability at 1 µM ([4]; Homo sapiens, Neuron)?
A: Its viability at 1 µM is 71%.

Q: And the Emax ([4]; Homo sapiens, Neuron)?
A: Its Emax is 71%.

Q: COc1ccc(-c2c[nH]c3ncc(-c4ccc(CN5CCN(C)CC5)cc4)cc23)cc1C [Compound 7aq, 3-(4-Methoxy-3-methylphenyl)-5-(4-((4-methylpiperazin-1-yl)methyl)phenyl)-1H-pyrrolo[2,3-b]pyridine] was tested. Which “% Enzyme Activity Remaining (relative to DMSO controls), MLK3/MAP3K11, Data 1” value [1] did it give?
A: The value was 51.92%.

Q: And the “% Enzyme Activity Remaining (relative to DMSO controls), MLK3/MAP3K11, Data 2” value [1]?
A: Its value is 49.61%.

Q: What about the remaining activity at 0.1 µM [2, 5] of the same molecule?
A: Its remaining activity at 0.1 µM is 54.5%.

Q: And the remaining activity at 0.1 µM [2, 6]?
A: The remaining activity at 0.1 µM was 53.6%.

Q: And the remaining activity at 0.025 µM [3]?
A: Its remaining activity at 0.025 µM is 57.3%.

Q: And the remaining activity at 0.1 µM [3]?
A: Its remaining activity at 0.1 µM is 20%.

Q: Which “% Enzyme Activity Remaining (relative to DMSO controls), MLK3/MAP3K11, Data 1” value [1] does the source give for CN1CCN(Cc2ccc(-c3cnc4[nH]ccc4c3)cc2)CC1 [Compound 4, 5-(4-((4-Methylpiperazin-1-yl)methyl)phenyl)-1H-pyrrolo[2,3-b]pyridine] here?
A: Its value is 91.95%.

Q: What about the “% Enzyme Activity Remaining (relative to DMSO controls), MLK3/MAP3K11, Data 2” value [1] of the same molecule?
A: Its value is 94.97%.

Q: What about the remaining activity at 0.1 µM [2, 5] of the same molecule?
A: Its remaining activity at 0.1 µM is 95.9%.

Q: What about the remaining activity at 0.1 µM [2, 6] of the same molecule?
A: Its remaining activity at 0.1 µM is 93.5%.

Q: And the remaining activity at 0.025 µM [3]?
A: The remaining activity at 0.025 µM was 101%.

Q: What about the remaining activity at 0.1 µM [3] of the same molecule?
A: Its remaining activity at 0.1 µM is 88.3%.

Q: What about the EC50 [4] of the same molecule?
A: The EC50 was “Ambiguous”.

Q: What about the viability at 1 µM ([4]; Homo sapiens, Neuron) of the same molecule?
A: Its viability at 1 µM is 10.3%.

Q: And the Emax ([4]; Homo sapiens, Neuron)?
A: The Emax was 13.7%.

Q: CN1CCN(Cc2ccc(-c3cnc4[nH]cc(-c5cccc(O)c5)c4c3)cc2)CC1 [Compound 7r, 3-(5-(4-((4-Methylpiperazin-1-yl)methyl)phenyl)-1H-pyrrolo[2,3-b]pyridin-3-yl)phenol] was tested. Which “% Enzyme Activity Remaining (relative to DMSO controls), MLK3/MAP3K11, Data 1” value [1] did it give?
A: Its value is 38.87%.

Q: And the “% Enzyme Activity Remaining (relative to DMSO controls), MLK3/MAP3K11, Data 2” value [1]?
A: The value was 39.87%.

Q: And the remaining activity at 0.1 µM [2, 5]?
A: The remaining activity at 0.1 µM was 56.2%.

Q: And the remaining activity at 0.1 µM [2, 6]?
A: The remaining activity at 0.1 µM was 58.6%.

Q: And the remaining activity at 0.025 µM [3]?
A: The remaining activity at 0.025 µM was 4.88%.

Q: What about the remaining activity at 0.1 µM [3] of the same molecule?
A: Its remaining activity at 0.1 µM is 1.23%.

Q: Which results are given for CN1CCN(Cc2ccc(-c3cnc4[nH]cc(-c5cc6ccccc6[nH]5)c4c3)cc2)CC1 [Compound 7a, 3-(1H-Indol-2-yl)-5-(4-((4-methylpiperazin-1-yl)methyl)phenyl)-1H-pyrrolo[2,3-b]pyridine]?
A: % Enzyme Activity Remaining (relative to DMSO controls), MLK3/MAP3K11, Data 1 [1]: 63.66%; % Enzyme Activity Remaining (relative to DMSO controls), MLK3/MAP3K11, Data 2 [1]: 64.82%; remaining activity at 0.1 µM [2, 5]: 74.2%; remaining activity at 0.1 µM [2, 6]: 75.1%; remaining activity at 0.025 µM [3]: 86.1%; remaining activity at 0.1 µM [3]: 58.8%

Q: Which results are given for CN1CCN(Cc2ccc(-c3cnc4[nH]cc(-c5cccc(C(=O)O)c5)c4c3)cc2)CC1 [Compound 7j, 3-(5-(4-((4-Methylpiperazin-1-yl)methyl)phenyl)-1H-pyrrolo[2,3-b]pyridin-3-yl)benzoic acid]?
A: % Enzyme Activity Remaining (relative to DMSO controls), MLK3/MAP3K11, Data 1 [1]: 46.91%; % Enzyme Activity Remaining (relative to DMSO controls), MLK3/MAP3K11, Data 2 [1]: 44.55%; remaining activity at 0.1 µM [2, 5]: 77.7%; remaining activity at 0.1 µM [2, 6]: 77.5%; remaining activity at 0.025 µM [3]: 63.6%; remaining activity at 0.1 µM [3]: 20.6%

Q: With c1cc2cc(-c3c[nH]c4ncc(-c5ccc(CN6CC7CCC(C6)O7)cc5)cc34)ccc2[nH]1 [Compound 12a, 3-(4-(3-(1H-Indol-5-yl)-1H-pyrrolo[2,3-b]pyridin-5-yl)benzyl)-8-oxa-3-azabicyclo[3.2.1]octane] as the molecule, how does the “% Enzyme Activity Remaining (relative to DMSO controls), MLK3/MAP3K11, Data 1” value [1] read?
A: The value was 52.18%.

Q: What about the “% Enzyme Activity Remaining (relative to DMSO controls), MLK3/MAP3K11, Data 2” value [1] of the same molecule?
A: Its value is 46.74%.

Q: What about the remaining activity at 0.1 µM [2, 5] of the same molecule?
A: The remaining activity at 0.1 µM was 56.2%.

Q: And the remaining activity at 0.1 µM [2, 6]?
A: The remaining activity at 0.1 µM was 46.5%.

Q: What about the remaining activity at 0.025 µM [3] of the same molecule?
A: The remaining activity at 0.025 µM was 72.8%.

Q: What about the remaining activity at 0.1 µM [3] of the same molecule?
A: Its remaining activity at 0.1 µM is 51.5%.

Q: Which “% Enzyme Activity Remaining (relative to DMSO controls), MLK3/MAP3K11, Data 1” value [1] does the source give for CN1CCN(Cc2ccc(-c3cnc4[nH]cc(-c5cc(C(F)(F)F)cc(C(F)(F)F)c5)c4c3)cc2)CC1 [Compound 7aj, 3-(3,5-Bis(trifluoromethyl)phenyl)-5-(4-((4-methylpiperazin-1-yl)methyl)phenyl)-1H-pyrrolo[2,3-b]pyridine] here?
A: Its value is 95.75%.

Q: What about the “% Enzyme Activity Remaining (relative to DMSO controls), MLK3/MAP3K11, Data 2” value [1] of the same molecule?
A: The value was 93.75%.

Q: What about the remaining activity at 0.1 µM [2, 5] of the same molecule?
A: Its remaining activity at 0.1 µM is 96.4%.

Q: And the remaining activity at 0.1 µM [2, 6]?
A: Its remaining activity at 0.1 µM is 92.6%.

Q: And the remaining activity at 0.025 µM [3]?
A: Its remaining activity at 0.025 µM is 103%.

Q: What about the remaining activity at 0.1 µM [3] of the same molecule?
A: Its remaining activity at 0.1 µM is 86.6%.
